± gives the expanded uncertainty stated by the source.
Experiment: activity coefficient (dimensionless); of the first substance listed, at infinite dilution; xn = mol fraction of the nth substance listed
Settings: 101 kPa, Liquid, Chromatography, x1 = 0

| SMILES | activity coefficient (358.15 K) | activity coefficient (368.15 K) | activity coefficient (378.15 K) | activity coefficient (388.15 K) | activity coefficient (398.15 K) | activity coefficient (408.15 K) | activity coefficient (418.15 K) | activity coefficient (428.15 K) |
| --- | --- | --- | --- | --- | --- | --- | --- | --- |
| C=Cc1ccccc1 [styrene] + CCCCn1cc[n+](C)c1.COP(=O)([O-])OC | 2.79 ± 0.19 | 2.93 ± 0.2 | 3.06 ± 0.21 | 3.26 ± 0.22 |  |  |  |  |
| C=Cc1ccccc1 [styrene] + CCCCn1cc[n+](C)c1.CS(=O)(=O)[O-] | 3.79 ± 0.26 | 3.96 ± 0.27 | 4.2 ± 0.29 | 4.4 ± 0.3 |  |  |  |  |
| C=Cc1ccccc1 [styrene] + CCCCn1cc[n+](C)c1.[Cl-] | 4.96 ± 0.34 | 5.18 ± 0.35 | 5.42 ± 0.37 | 5.73 ± 0.39 |  |  |  |  |
| C1CCOC1 [tetrahydrofuran] + CCCCn1cc[n+](C)c1.COP(=O)([O-])OC | 2.79 ± 0.19 | 2.84 ± 0.19 | 2.89 ± 0.2 | 3.02 ± 0.21 |  |  |  |  |
| C1CCOC1 [tetrahydrofuran] + CCCCn1cc[n+](C)c1.CS(=O)(=O)[O-] | 3.41 ± 0.23 | 3.48 ± 0.24 | 3.59 ± 0.24 | 3.72 ± 0.25 |  |  |  |  |
| C1CCOC1 [tetrahydrofuran] + CCCCn1cc[n+](C)c1.[Cl-] | 5.66 ± 0.39 | 5.67 ± 0.39 | 5.67 ± 0.39 | 5.7 ± 0.39 |  |  |  |  |
| c1ccsc1 [thiophene] + CCCCn1cc[n+](C)c1.COP(=O)([O-])OC | 1.24 ± 0.08 | 1.35 ± 0.09 | 1.43 ± 0.09 | 1.53 ± 0.1 |  |  |  |  |
| c1ccsc1 [thiophene] + CCCCn1cc[n+](C)c1.CS(=O)(=O)[O-] | 1.72 ± 0.12 | 1.81 ± 0.12 | 1.94 ± 0.13 | 2.05 ± 0.14 |  |  |  |  |
| c1ccsc1 [thiophene] + CCCCn1cc[n+](C)c1.[Cl-] | 2.04 ± 0.14 | 2.16 ± 0.15 | 2.27 ± 0.15 | 2.41 ± 0.16 |  |  |  |  |
| Cc1ccccc1 [toluene] + CCCCn1cc[n+](C)c1.COP(=O)([O-])OC | 3.86 ± 0.26 | 3.99 ± 0.27 | 4.09 ± 0.28 | 4.29 ± 0.29 |  |  |  |  |
| Cc1ccccc1 [toluene] + CCCCn1cc[n+](C)c1.CS(=O)(=O)[O-] | 5.32 ± 0.36 | 5.45 ± 0.37 | 5.68 ± 0.39 | 5.84 ± 0.4 |  |  |  |  |
| Cc1ccccc1 [toluene] + CCCCn1cc[n+](C)c1.[Cl-] | 7.78 ± 0.53 | 7.91 ± 0.54 | 8.09 ± 0.55 | 8.36 ± 0.57 |  |  |  |  |
| C=COC(C)=O [vinyl acetate] + CCCCn1cc[n+](C)c1.COP(=O)([O-])OC | 2.79 ± 0.19 | 2.88 ± 0.2 | 2.99 ± 0.2 | 3.13 ± 0.21 |  |  |  |  |
| C=COC(C)=O [vinyl acetate] + CCCCn1cc[n+](C)c1.CS(=O)(=O)[O-] | 3.47 ± 0.24 | 3.58 ± 0.24 | 3.76 ± 0.26 | 3.92 ± 0.27 |  |  |  |  |
| C=COC(C)=O [vinyl acetate] + CCCCn1cc[n+](C)c1.[Cl-] | 5.66 ± 0.39 | 5.74 ± 0.39 | 5.86 ± 0.4 | 6.05 ± 0.41 |  |  |  |  |
| O [water] + CCCCn1cc[n+](C)c1.COP(=O)([O-])OC |  |  |  |  | 0.073 ± 0.03 | 0.081 ± 0.03 | 0.092 ± 0.03 | 0.101 ± 0.03 |
| O [water] + CCCCn1cc[n+](C)c1.CS(=O)(=O)[O-] |  |  |  |  | 0.2 ± 0.029 | 0.214 ± 0.029 | 0.228 ± 0.029 | 0.239 ± 0.029 |
| O [water] + CCCCn1cc[n+](C)c1.[Cl-] |  |  |  |  | 0.07 ± 0.03 | 0.077 ± 0.03 | 0.085 ± 0.03 | 0.094 ± 0.03 |

Reference: the NIST ThermoML archive (doi:10.1016/j.jct.2015.07.042)
